{"source": "patent US6787125B1", "about": "“Compound screening method” (priority 1999, dated 2004)", "key": {"wild-type worms": {"system": "wild-type worms", "assay": "Movement assay (autofluorescence), wild-type worms", "format": "in vivo, C. elegans", "settings": "for effect on movement of wild-type worms, compound alone: FIG. 8, 100% represents normal movement of wild-type worms", "method": "Advanced multi-well plate readers are able to detect sub-regions of the wells of multi-well plates. By using these plate readers it is possible to take measurements in selected areas of the surface of the wells of the multi-well plates. If the area of measurement is centralized, so that only the middle of the well is measured, a difference in nematode autofluorescence (fluorescence which occurs in the absence of any external marker molecule) or optical density can be observed in the wells containing nematodes that move normally as compared to wells containing nematodes that are defective for movement. For the wells containing the nematodes that move normally, a low level of autofluorescence or optical density will be observed, whilst a high level of autofluorescence or optical density can be observed in the wells that contain the nematodes that are defective in movement. Optical density is measured using a variation of the platelet aggregation assay, which is well known in the art. Using the MRX revelation device from Dynex (USA), optical density can be measured at multiple points per well, showing the precipitation pattern of the nematodes.\nThis is because the mutant is mutated in the acetylcholine esterases, resulting in high concentrations of acetylcholine in the synapses. Neostigmine, a well known acetylcholine esterase inhibitor, was added to wild-type worms distributed over the wells of a multi-well plate and submitted to the movement assay after approximately 2 hours.\nAs receptor antagonist, hexamethonium will also result in a decrease of movement, as it prevents proper signalling.\nIn another experiment, wild-type worms were contacted with inhibitory concentrations of neostigmine to prevent movement. After a small incubation period, various concentrations of hexamethonium were added and the wells were submitted to the movement assay (measurement of autofluorescence). […] At very high concentrations of hexamethonium (although lower than the concentrations shown in last panel) a toxic effect is observed, resulting in a decrease in movement. This toxic effect is probably due to the presence of high concentrations of both neostigmine and hexamethonium."}, "C. elegans pharynx [1]": {"system": "C. elegans pharynx", "settings": "Kerr et al.; cited from earlier work"}, "C. elegans pharynx [2]": {"system": "C. elegans pharynx", "assay": "Pharynx pumping assay (calcein-AM), strain not specified: dilution series, insecticides, Tocris library", "format": "in vivo", "settings": "for effect of compounds of known insecticidal activity on the pharynx pumping rate: FIGS. 18 to 21", "method": "(§1) The pumping rate of the pharynx is measured indirectly by adding a marker molecule precursor such as calcein-AM to the medium and measuring the formation of marker dye in the C. elegans gut. Calcein-AM is cleaved by esterases present in the C. elegans gut to release calcein, which is a fluorescent molecule. […] Therefore by measuring the accumulation of calcein in the nematode gut, detectable by fluorescence, it is possible to determine the pumping rate of the pharynx.\n(§2) To perform the pharynx pumping screen with calcein-AM, a concentration of between 1 and 100 μM calcein-AM is added into the medium. Preferably 5 to 10 μM calcein-AM is used. Fluorescence is measured using a multi-well plate reader (Victor2, Wallac Oy, Finland) with following settings: Ex/Em=485/530.\nTo determine the sensitivity of the pharynx pumping assay, dilution series were made for some chemical substances. These include the chemicals clomipramine, tamoxifen, BP554, pimazide and thapsigargin. A concentration range was made from less than 1 μM up to 100 μM, and the pumping assay was repeated as described in previous examples."}, "[3]": {"system": "ace-1; ace-2 double mutant", "assay": "Movement assay, ace-1; ace-2 double mutant", "format": "in vivo, C. elegans", "settings": "increasing concentrations of hexamethonium, absence of neostigmine; compared with the neostigmine experiment", "method": "An analogous experiment was performed with the ace-1; ace-2 double mutant. In this experiment, increasing concentrations of hexamethonium were added to the wells in the absence of neostigmine."}, "[4]": {"system": "mutant C. elegans strain with a constitutively pumping pharynx", "assay": "Pharynx pumping assay (calcein-AM fluorescence), screen for inhibitors", "format": "in vivo", "settings": "compounds and worms incubated approximately 1 hour, then calcein-AM, one further hour", "excerpt": "Depending on the specific assay which it is desired to perform, different C. elegans strains can be used. Screens to select for chemical substances inhibiting the pumping rate of the C. elegans pharynx are generally performed with mutant C. elegans strains which have a constitutively pumping pharynx. Wild-type worms can also be used in this screen, but the mutants worms are preferred. […] The selected mutant C. elegans with the constitutively pumping pharynx pumps medium into the gut at a constant rate and reduction/rescue of this phenotype can easily be scored, which facilitates the detection and selection of chemical substances.\nas §1, §2\n160 well known drugs selected from the pharmacopoeia were used in a screen to test the performance of the pharynx pumping method. The drugs tested belong to a variety of categories, which included analgesics, antidiabetics, antiarrythmics, calcium channel blockers, diuretics, cholinesterase inhibitors, proton pump inhibitors and antidepressants.\nThe drugs were randomly distributed over the wells of two 96-well multi-well plates. The pumping rate of the C. elegans pharynx was measured using calcein-AM as described in Example 2.\nIn a first assay, the substrate calcein-AM was added to the medium at the same time as the worms and the compounds. The fluorescence was measured after approximately one hour.\nIn a variation of this protocol, compounds and worms are added to the medium first and incubated for approximately 1 hour. After this incubation period that allowed for the chemical substances to activate or to inhibit the pumping rate of the pharynx, calcein-AM was added. The plates where then further incubated for one hour prior to fluorescence measurement in the microtiter plate reader."}}}
{"molecule": "CN(C)C(=O)Oc1cccc([N+](C)(C)C)c1", "note": "[neostigmine, Neostigmine]", "values": [{"measurement": "effect on movement of wild-type worms, compound alone", "setting": "wild-type worms", "result": "clear decrease in movement"}]}
{"molecule": "NCCc1c[nH]c2ccc(O)cc12", "note": "[serotonin]", "values": [{"measurement": "effect on pumping, seen as fluorescence of GFP-calmodulin", "setting": "C. elegans pharynx [1]", "result": "enhancers of pumping"}]}
{"molecule": "Ivermectin", "values": [{"measurement": "effect of compounds of known insecticidal activity on the pharynx pumping rate", "setting": "C. elegans pharynx [2]", "result": "reduction in the pharynx pumping rate"}, {"measurement": "effect on pumping, seen as fluorescence of GFP-calmodulin", "setting": "C. elegans pharynx [1]", "result": "inhibitors of pumping"}]}
{"molecule": "C[N+](C)(C)CCCCCC[N+](C)(C)C", "note": "[hexamethonium, Hexamethonium]", "values": [{"measurement": "effect on movement of wild-type worms, compound alone", "setting": "wild-type worms", "result": "represses the movement of wild-type worms, but significant less than neostigmine"}, {"measurement": "movement of wild-type worms in presence of inhibitory concentrations of neostigmine", "setting": "wild-type worms; increasing concentrations of hexamethonium", "result": "more movement"}, {"measurement": "toxic effect in movement assay", "setting": "wild-type worms; very high concentrations of hexamethonium together with neostigmine", "result": "toxic effect"}, {"measurement": "movement of ace-1; ace-2 double mutant", "setting": "[3]", "result": "comparable"}]}
{"molecule": "C/C=C(/C)C(=O)O[C@H]1C(C)=C2[C@H]([C@@H]1OC(=O)CCCCCCC)[C@@](C)(OC(C)=O)C[C@H](OC(=O)CCC)[C@@]1(O)[C@H]2OC(=O)[C@@]1(C)O", "note": "[Thapsigargin]", "values": [{"measurement": "effect on movement", "setting": "wild-type worms; observation, method not stated", "result": "decreased movement"}, {"measurement": "effect on pharynx pumping rate, dose-response curve", "setting": "C. elegans pharynx [2]; at low concentration", "result": "enhancement of the pumping"}, {"measurement": "effect on pharynx pumping rate, dose-response curve", "setting": "C. elegans pharynx [2]; concentration range from less than 1 μM up to 100 μM", "result": "decrease of the pumping rate"}, {"measurement": "effect on pharynx pumping", "setting": "C. elegans pharynx [2]; general statement", "result": "decrease in the pharynx pumping rate"}]}
{"molecule": "N=C(N)S/C=C\\C(=O)O", "note": "[ZAPA]", "values": [{"measurement": "activity on the pharynx pumping rate found with the variation of the protocol", "setting": "[4]", "result": "detection"}]}
{"molecule": "CN1[C@@H]2CC[C@H]1C[C@@H](OC(=O)[C@H](CO)c1ccccc1)C2", "note": "[L-Hyoscyamine]", "values": [{"measurement": "activity on the pharynx pumping rate found with the variation of the protocol", "setting": "[4]", "result": "detection"}]}
{"molecule": "CN1[C@@H]2CC[C@H]1C[C@@H](OC(=O)C(CO)c1ccccc1)C2", "note": "(some centres unmarked) [Atropine]", "values": [{"measurement": "activity on the pharynx pumping rate found with the variation of the protocol", "setting": "[4]", "result": "detection"}]}
{"molecule": "C=C(C)[C@H]1Cc2c(ccc3c2O[C@@H]2COc4cc(OC)c(OC)cc4[C@@H]2C3=O)O1", "note": "[Rotenone]", "values": [{"measurement": "effect of compounds of known insecticidal activity on the pharynx pumping rate", "setting": "C. elegans pharynx [2]", "result": "reduction in the pharynx pumping rate"}]}
{"molecule": "COP(=O)(OC)C(O)C(Cl)(Cl)Cl", "note": "(centres unmarked) [Metrifonate]", "values": [{"measurement": "activity on the pharynx pumping rate found with the variation of the protocol", "setting": "[4]", "result": "detection"}]}
